Data: patent publication US8580486B2, “Salt having fluorine-containing carbanion structure, derivative thereof, photoacid generator, resist material using the photoacid generator, and pattern forming method” (Central Glass Company, Limited, priority 2008, dated 2013)
Where a name gives a salt, the structure may show the parent alone.

Columns and labels:
[1] = Solubility in resist solvent (PGMEA); format: physicochemical; conditions: for Solubility: in propylene glycol monomethyl ether acetate (PGMEA)
[2] = Compatibility of PAG with resist (base resin); conditions: for Compatibility: acid generator (1.0), PGMEA (400)

Row | Compound | Solubility [1] | Compatibility ([2]; Resin 1 (40 parts by wt.)) | Compatibility ([2]; Resin 2 (40 parts by wt.)) | Compatibility ([2]; Resin 3 (40 parts by wt.)) | Compatibility ([2]; Resin 4 (40 parts by wt.)) | Solubility compared with existing PAG (PAG2) having an adamantane skeleton ([1]; in PGMEA, statement in words) | Compatibility ([2]; Resin 5 (40 parts by wt.)) | Compatibility with resists compared with conventional products ([2]; summary of Table 2 and Table 3, in words)
1 | (adamantan-1-ylmethyl)oxycarbonyl difluoromethanesulfonic acid triphenylsulfonium [PAG2, reference compound] | 0.3 parts by weight of PAG dissolved in 100 parts by weight of PGMEA | Good | Good | Good | Good | – | – | –
2 | CC(CC(S(=O)(=O)C(F)(F)F)S(=O)(=O)C(F)(F)F)OC(=O)C12CC3CC(CC(C3)C1)C2 (centres unmarked) [PAG1, 3-(1-adamantanecarbonyl)oxy 1,1-bis(trifluoromethanesulfonyl)butane triphenylsulfonium salt] | not less than 0.1 parts by weight of PAG dissolved in 100 parts by weight of PGMEA | Good | Good | Good | Good | superior | Good | higher compatibility with resists as compared with conventional products
3 | nonafluorobutanesulfonic acid triphenylsulfonium salt [PAG3, reference compound] | – | Good | – | – | – | – | – | –
